Where two headings read alike, the source gives them in different places.
Key:
[1] = tested on: human A375 melanoma xenografts
A375 cells = assay: Anchorage-independent growth inhibition (MTS, 7 days); format: cell-based, human
human hepatocytes = assay: Primary hepatocyte toxicity (AK release, ATP, 48 hr); format: cell-based
Protocol: Plated human hepatocytes were obtained from CellzDirect and processed according to manufacturer's instructions.
(§1) After 48 hr, supernatant AK levels were determined using Toxilight, and cellular ATP levels were determined using CellTiterGlo. Full kill values were determined using 15 μM VRX-14686.

A375 melanoma cells = assay: Anchorage-dependent growth inhibition (CellTiterGlo/ATP, 48 hr); format: cell-based, human; conditions: for GI50: ATP content
[2] = tested on: Colo205 colon cancer cells; assay: as above; conditions: ATP content
Protocol: (§2) Cells were maintained at 37° C., 5% CO2, and 100% humidity. Colo205 cells were maintained in RPMI supplemented with 10% fetal bovine serum, glutamine (2 mM), penicillin (100 U/ml), and streptomycin (100 μg/ml). For growth inhibition experiments, cells were plated in white 384-well microplates at 1000 cells/20 dwell. After 24 hr, 5 μl of a 5× drug stock solution was added. All drugs were initially prepared as 200× stocks in DMSO, such that final DMSO concentration was 0.5%. Cells were incubated for 48 hr at 37° C. and ATP levels were determined using CellTiterGlo (Promega, Madison, Wis.). […] Non-linear curve-fitting was performed using GraphPad Prism 4 (GraphPad Software, San Diego, Calif.).

[3] = tested on: orthotopic HT-29 human colorectal adenocarcinoma; assay: Growth response of orthotopic HT-29 colon tumors in nude mice; format: in vivo, BALB/c nu/nu mice
Protocol: Female BALB/c nu/nu mice (University of Adelaide, Waite Campus, SA, Australia), aged 7-12 weeks, with a body weight range: of 16.58-25.39 g (mean 21.52 g) were used for the study. The mice were divided into 6 Study groups (4 treatment groups and 2 control groups) as follows: • Number of Mice per Group: 10 in Groups 1 to 5 inclusive • 9 in ‘Take-Rate’ Control Group (Group 6)
HT-29 human colorectal adenocarcinoma cells (Passage 4 from working stock VP-Stock 325) were cultured in RPMI1640 cell culture medium, which was supplemented with 10% FBS and penicillin-streptomycin (501 U/mL final concentration). The cells were harvested by trypsinisation, washed twice in HBSS and counted. The cells were then resuspended in HESS and adjusted to a final volume containing 2×10^8 cells/mL. Prior to inoculation, the incision site was liberally swabbed with alcohol and an incision made through the abdominal wall to expose the caecum wall. The needle was introduced through the surface of the caecum wall where 5 μL of cells (1×10^6 cells) were discharged.
A stock solution was prepared weekly and stored at 4° C. Dosing solutions were prepared on each day of administration.
Caecum and tumor wet weight were measured when each were excised post-mortem on the termination day of the study. At the termination of the study, the caecum was excised from all mice in each study group and weighed with the tumors intact. The tumors were then excised from the caecum and weighed.
A two-sample t-test was used to determine the significance in body weight change within a treatment group between Day 0 and the termination day of the study. […] In these groups, a two-sample t-test was used to determine the significance in body weight change within a treatment group between Day 0 and the final treatment day of the study, and between the last treatment day and the termination day of the study.
A One-Way Analysis of Variance (ANOVA) (All Pairwise Multiple Comparison Procedure and Multiple Comparison versus Control Group) was performed on the caecum weight and tumor weight data at the end of the study.

[4] = tested on: human renal proximal tubule epithelial cells (RPTEC); assay: Renal cell toxicity (AK release, ATP, 48 hr); format: cell-based
Protocol: Cryopreserved human renal proximal tubule epithelial cells (RPTEC) were obtained from Cambrex and were processed according to manufacturer's instructions. Cells were expanded for 4 days and then plated in 96-well plates at 50,000 cells/well for drug exposure.
as §1

HT29 colon cells = assay: Anchorage-dependent growth inhibition (CellTiterGlo/ATP, 48 hr); conditions: read-out: Mean GI50; HT29, 48 hr, ATP content, mean of at least three experiments
Protocol: as §2

Colo205 cells = assay: Anchorage-independent growth inhibition (MTS, 7 days); format: cell-based, human
Protocol: Wells of an “ultra low binding” plate (Corning, Acton Mass.) were filled with 60 μl of a 0.15% agarose solution in complete RPMI. Then, 60 μl complete RPMI containing 9000 Colo205 cells in 0.15% agarose was added per well. After 24 hr, 60 μl of a 3× drug solution in agarose free complete RPMI was added. After 7 days, 36 μl 6×MTS reagent (CellTiter 96 Aqueous, Promega, Madison, Wis.) was added per well. After 2 hr at 37° C., absorbance at 490 nm was determined on the M5 plate reader (Molecular Devices, Sunnyvale, Calif.).
Viability was determined by MTS assay.

A431 epidermoid cells = assay: Anchorage-dependent growth inhibition (CellTiterGlo/ATP, 48 hr); conditions: read-out: Mean GI50; A431, 48 hr, ATP content, mean of at least three experiments
Protocol: as §2

rat hepatocytes = assay: Primary hepatocyte toxicity (AK release, ATP, 48 hr); format: cell-based; conditions: rat hepatocytes
Protocol: Cryopreserved rat hepatocytes were obtained from CellzDirect (Austin, Tex.) and plated on collagen coated 96-well plates according to manufacturer's instructions. Drug was added 4 hr after plating (final DMSO concentration 0.5%).
as §1

For `COc1cc(F)c(F)c(Nc2ccc(I)cc2F)c1NS(=O)(=O)C1(C[C@H](O)CO)CC1`, the “Median TTE” value ([1]; Group 3, 50 mg/kg po qd×14) was 27.5 days, the PR ([1]; Group 3, 50 mg/kg po qd×14) was “A single animal” and the TGD ([1]; Group 3, 50 mg/kg po qd×14) was 21%. The CR ([1]; Group 4, 25 mg/kg po bid×14) was 5/9, the “Median TTE” value ([1]; Group 4, 25 mg/kg po bid×14) was 59.9 days and the PR ([1]; Group 4, 25 mg/kg po bid×14) was 4/9. The TFS ([1]; Group 4, 25 mg/kg po bid×14) was 4/9, the TGD ([1]; Group 4, 25 mg/kg po bid×14, maximum possible) was 163% and the “Median TTE” value ([1]; Group 5, 25 mg/kg po qd×14) was 25.6 days. For the same molecule, the tumor regressions ([1]; Group 5, 25 mg/kg po qd×14) was “no tumor regressions”, the TGD ([1]; Group 5, 25 mg/kg po qd×14, non-significant) was 12% and the “Median TTE” value ([1]; Group 6, 12.5 mg/kg po bid×14) was 27.5 days. For the same molecule, the PR ([1]; Group 6, 12.5 mg/kg po bid×14) was “a single PR response”, the TGD ([1]; Group 6, 12.5 mg/kg po bid×14) was 21% and the GI50 (A375 cells; A375, anchorage independent, read-out: Mean GI50) was 84 nM. The GI50 (A375 cells; A375 cells, read-out: GI50, anchorage independent growth (FIG. 12B)) was 22 nM, the survival (human hepatocytes; freshly plated primary human hepatocytes, 30 μM, 48 hr) was 81% and the cytotoxicity (human hepatocytes; primary normal human hepatocytes) was “little cytotoxicity”. The GI50 (A375 melanoma cells; A375, 48 hr, mean of at least three experiments, read-out: Mean GI50) was 71 nM, the GI50 (A375 melanoma cells; A375, separate study, 48 hr, read-out: GI50) was 56 nM and the “ATP, Cell viability, % Control” value (A375 melanoma cells; A375 cells, 1 uM, 48 hr) was 27%. The GI50 ([2]; Colo205, separate study, 48 hr) was 27 nM, the GI50 ([2]; read-out: Mean GI50, Colo205, 48 hr, mean of at least three experiments) was 89 nM and the “HT-29 tumor and caecum weight, trend” value ([3]; 10 mg/kg p.o.) was “reduction”. For the same molecule, the “average caecum and tumor weights vs Vehicle Control” value ([3]; 2, 10 and 50 mg/kg p.o.) was “no significant difference”, the “ATP depletion and cell lysis” value ([4]; RPTEC cells, 48 hr, cell lysis at 30 W (so in the source)) was “dose dependent ATP depletion and evident cell lysis” and the cytotoxicity ([4]; human renal proximal tubule epithelial cells) was “little cytotoxicity”. For the same molecule, the GI50 (HT29 colon cells) was 70 nM, the GI50 (Colo205 cells; Colo205, anchorage independent, read-out: Mean GI50) was 40 nM and the GI50 (Colo205 cells; human colorectal carcinoma Colo205 cells, read-out: GI50, anchorage independent growth (FIG. 12A)) was 11 nM. For the same molecule, the GI50 (A431 epidermoid cells) was 86 nM and the cytotoxicity (rat hepatocytes) was “little cytotoxicity”.

Source: patent US8648116B2, “Derivatives of N-(arylamino) sulfonamides including polymorphs as inhibitors of MEK as well as compositions, methods of use and methods for preparing the same” (Ardea Biosciences, Inc., priority 2005, dated 2014)
